Results as given in patent US6692757B1, “Multi-component, safe biocidal complex” (Board of Supervisors of Louisiana State University and …, priority 1999, dated 2004).

Experiments:
[1] = system: Salmonella typhimurium on chicken skin; assay: MIC on inoculated chicken skin, S. typhimurium; format: cell-based; conditions: single agent; chicken skin immersed 10 min at 20° C.; concentration reducing final count below 17.5 cfu/cm^2
Protocol: To test the effectiveness of Biocidal Complex on other surfaces, a 5.7 cm^2 piece of chicken leg skin was placed in a holder made from a bottomless 50 ml centrifuge tube with a cap to support the skin test strip. Each skin sample was initially immersed in water. […] The bacteria were counted as described below. This value served as the control. The skin was then exposed to germicidal ultraviolet light for 5 min to sanitize the skin prior to inoculation. The sanitized skin was inoculated with 1 ml of a cell suspension containing 10^8 cfu/ml of either Salmonella typhimurium or Escherichia coli B and incubated for 30 min at 37° C. and 32° C., respectively. The inoculated skin samples were immersed in Biocidal Complex or in other combinations of ingredients at 20° C. for 10 min. […] The cotton swabs from both the control and treated skin were vortex-mixed for 1 min in a 0.1% peptone solution (pH 7.2). Then 0.5 ml of peptone solution was plated on MacConkey agar (Difco Laboratory, Detroit, Michigan). The plates were incubated for 24 hr at either 37° C. or 32° C. before counting the colonies. Microbial counts were expressed as cfu/cm^2, based on a total skin sample area of 5.7 cm^2. An initial level of contamination before treatment with Biocidal Complex (or water) was assessed for each sample. […] Contamination level of the inoculated skin after 30 min incubation time and immediately before treatment was 3,500,000 cfu/cm^2. The water-washed control skin ha 1,750 cfu/cm^2.

[2] = system: Salmonella typhimurium in broth culture; assay: MIC in broth culture, S. typhimurium; format: cell-based; conditions: single agent; nutrient broth, 24 hours at 37° C.; no detectable growth
Protocol: (§1) Nutrient broth was mixed with the complete Biocidal Complex or with combinations of ingredients, and then serially diluted two-fold in stages. Various combinations of biocidal ingredients and broth were inoculated with 0.1 ml of either Salmonella typhimurium or Escherichia coli B to give a microbial count of about 10^7 cfu/ml. Inoculated broth was then incubated for 24 hours at 37° C. for S. typhimurium, or at 32° C. for E. coli.

[3] = system: Escherichia coli in broth culture; assay: MIC in broth culture, E. coli; format: cell-based, Escherichia coli B; conditions: single agent; nutrient broth, 24 hours at 32° C.; no detectable growth
Protocol: as §1

[4] = system: bacteria endogenous to the city water system (biofilm on glass beads); assay: Biofilm-contaminated glass beads column: organisms released in effluent; format: cell-based; set-up: key: −: No significant reduction in number of organisms.; +/−: A small or transient reduction in number of organisms.; +: A significant reduction in number of organisms.; +++: A reduction to below 10 organisms per ml effluent; conditions: hydrogen peroxide 3% v/v, NaHSO4 0.06% w/v, thymol >0.1% w/v, iron chip, treated four days, 12 h static
Protocol: The beads were first contaminated with bacteria endogenous to the city water system for five days.
0.06% w/v; and thymol, >0.1% w/v. Additionally, an iron chip was added to the Biocidal Complex.
Glass beads with an established biofilm were treated, and samples collected and analyzed, as described above.

[5] = system: Escherichia coli on chicken skin; assay: MIC on inoculated chicken skin, E. coli; format: cell-based, Escherichia coli B; conditions: single agent; chicken skin immersed 10 min at 20° C.; concentration reducing final count below 17.5 cfu/cm^2
Protocol: To test the effectiveness of Biocidal Complex on other surfaces, a 5.7 cm^2 piece of chicken leg skin was placed in a holder made from a bottomless 50 ml centrifuge tube with a cap to support the skin test strip. Each skin sample was initially immersed in water. […] The bacteria were counted as described below. This value served as the control. The skin was then exposed to germicidal ultraviolet light for 5 min to sanitize the skin prior to inoculation. The sanitized skin was inoculated with 1 ml of a cell suspension containing 10^8 cfu/ml of either Salmonella typhimurium or Escherichia coli B and incubated for 30 min at 37° C. and 32° C., respectively. The inoculated skin samples were immersed in Biocidal Complex or in other combinations of ingredients at 20° C. for 10 min. […] The cotton swabs from both the control and treated skin were vortex-mixed for 1 min in a 0.1% peptone solution (pH 7.2). Then 0.5 ml of peptone solution was plated on MacConkey agar (Difco Laboratory, Detroit, Michigan). The plates were incubated for 24 hr at either 37° C. or 32° C. before counting the colonies. Microbial counts were expressed as cfu/cm^2, based on a total skin sample area of 5.7 cm^2. An initial level of contamination before treatment with Biocidal Complex (or water) was assessed for each sample. […] Initial contamination level of the inoculated skin after 30 min incubation time and immediately prior to treatment was 140,000 cfu/cm^2.

Cc1ccc(C(C)C)c(O)c1 [Thymol, thymol]
MIC (%) [1]: >0.1%
MIC (%) [2]: 0.04%
MIC (%) [3]: 0.02%
Effect: qualitative changes in number of organisms released from established biofilms [4]: +/−
MIC (%) [5]: >0.1%

OO [H2O2, hydrogen peroxide]
MIC (%) [1]: 7.0%
MIC (%) [2]: 0.012%
MIC (%) [3]: 0.006%
Effect: qualitative changes in number of organisms released from established biofilms [4]: −
MIC (%) [5]: 4.0%

OCl [Sodium Hypochlorite, sodium hypochlorite, reference compound]
MIC (%) [1]: 1.0%
MIC (%) [2]: 0.025%
MIC (%) [3]: 0.013%
MIC (%) [5]: 1.0%
